Measurements reported in article PMC11472313, “Development of Fragment-Based Inhibitors of the Bacterial Deacetylase LpxC with Low Nanomolar Activity” (Journal of Medicinal Chemistry, 2024).
In brackets after ≈: the same amount, converted by molar mass.

Experiments:
[1] = tested on: P. aeruginosa ATCC 27853; experiment: disc diffusion assay; format: cell-based; settings: 0.15 μmol per 6 mm disc
Experimental: (§1) In the performed disc diffusion assays, indole derivatives (S)-13h, (S)-13i, and (S)-13j caused promising halos of growth inhibition.
(§2) The disc diffusion assays against E. coli TOP10 (Thermo Fisher, Waltham, USA), E. coli ATCC 35218, K. pneumoniae ATCC 700603, and P. aeruginosa ATCC 27853 were performed as follows: the bacteria were grown overnight on a Columbia blood agar plate (Oxoid, Basingstoke, UK), and one colony was suspended in sterile saline to yield a suspension of 0.5 McFarland standard. Using a sterile swab, the suspension was spread evenly onto Mueller–Hinton agar (Oxoid, Basingstoke, UK). 0.15 μmol of each compound (dissolved in 10 μL DMSO) was applied onto circular 6 mm diameter filter paper disks, which were then placed on the agar. After incubating the agar plates for 20 h at 37 °C, the diameter of the zone of growth inhibition was measured for each compound.

[2] = tested on: E. coli TOP10; experiment: disc diffusion assay; format: cell-based; settings: 0.15 μmol per 6 mm disc
Experimental: as §1, §2

[3] = tested on: E. coli ATCC 35218; experiment: disc diffusion assay; format: cell-based; settings: 0.15 μmol per 6 mm disc
Experimental: as §1, §2

[4] = tested on: E. coli BL21(DE3); experiment: disc diffusion assay; format: cell-based; settings: 0.15 μmol per 6 mm disc
[5] = tested on: E. coli D22; experiment: disc diffusion assay; format: cell-based; settings: 0.15 μmol per 6 mm disc
[6] = tested on: E. coli BL21(DE3); experiment: MIC, broth microdilution; format: cell-based; settings: 20 h, 37 °C, LB; for MIC: Escherichia coli
Method in brief: (§3)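 LB broth microdilution, inoculum 5 × 10^5 cfu mL^–1, 5% DMSO, 2-fold compound series 64–0.016 μg mL^–1 final, incubated 20 h at 37 °C. MIC was the lowest concentration preventing visible growth, from at least three runs on separate days.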

[7] = tested on: E. coli D22; experiment: MIC, broth microdilution; format: cell-based; settings: Escherichia coli, 20 h, 37 °C, LB
Method in brief: as §3

[8] = biological target: T1, LasB (Pseudomonas aeruginosa, UniProt Q02RJ6); experiment: FRET-based LasB in vitro inhibition assay; format: biochemical, P. aeruginosa PA14; settings: for inhibition at 20 µM: read-out: LasB Inhibition at 20 μM
T1 construct: The elastase LasB of P. aeruginosa is a secreted metalloprotease; endogenous in cells; host or cells: P. aeruginosa PA14 culture supernatant
Method in brief: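 FRET-based inhibition assay using LasB purified from P. aeruginosa PA14 culture supernatant; fluorescence read-out.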

[9] = biological target: T2, E. coli LpxC C63A (Escherichia coli, UniProt P0A725, C63A); experiment: fluorescence-based E. coli LpxC C63A enzyme inhibition assay; format: biochemical; settings: Ki E. coli LpxC C63A, from IC50 via Cheng–Prusoff
T2 construct: made in house; host or cells: E. coli BL21(DE3)
Method in brief: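 Purified E. coli LpxC C63A (15 nM) was incubated with 25 µM UDP-3-O-[(R)-3-hydroxymyristoyl]-GlcNAc in MES pH 6.0 buffer (2% DMSO) for 30 min at 37 °C. Compounds ranged from 20 nM to 20 µM. Product was derivatized with o-phthaldialdehyde/2-mercaptoethanol and read by fluorescence (ex 340/em 460), with IC50 converted to Ki via Cheng–Prusoff.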

[10] = tested on: K. pneumoniae ATCC 700603; experiment: disc diffusion assay; format: cell-based, Klebsiella pneumoniae; settings: 0.15 μmol per 6 mm disc
Experimental: as §1, §2

T1 sequence (Q02RJ6 198-498): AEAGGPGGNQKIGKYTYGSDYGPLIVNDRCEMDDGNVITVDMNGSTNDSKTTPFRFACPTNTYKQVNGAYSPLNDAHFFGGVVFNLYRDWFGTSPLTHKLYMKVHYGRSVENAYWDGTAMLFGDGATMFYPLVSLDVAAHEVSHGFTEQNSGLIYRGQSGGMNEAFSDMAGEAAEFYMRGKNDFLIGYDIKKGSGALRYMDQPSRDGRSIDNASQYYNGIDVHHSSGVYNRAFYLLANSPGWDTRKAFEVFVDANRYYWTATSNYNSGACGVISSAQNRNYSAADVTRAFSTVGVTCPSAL
T2 sequence (P0A725 whole entry C63A): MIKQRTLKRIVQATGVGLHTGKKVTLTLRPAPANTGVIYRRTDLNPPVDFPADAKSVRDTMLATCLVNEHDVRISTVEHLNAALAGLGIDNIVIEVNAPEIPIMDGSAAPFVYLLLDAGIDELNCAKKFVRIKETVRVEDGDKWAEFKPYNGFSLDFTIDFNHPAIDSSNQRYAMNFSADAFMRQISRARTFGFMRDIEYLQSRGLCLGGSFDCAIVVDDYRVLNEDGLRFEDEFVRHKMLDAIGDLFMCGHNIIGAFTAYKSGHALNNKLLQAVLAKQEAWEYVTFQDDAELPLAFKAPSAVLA

Compound	Inhibition zone P. aeruginosa ATCC 27853 [1]	Inhibition zone E. coli TOP 10 [2]	Inhibition zone E. coli ATCC 35218 [3]	Inhibition zone E. coli BL21(DE3) [4]	Inhibition zone E. coli D22 [5]	MIC E. coli BL21(DE3) [6]	MIC [6]	MIC [7]	LasB Inhibition at 20 μM [8]	inhibition at 20 µM [8]	Ki [9]	Inhibition zone K. pneumoniae ATCC 700603 [10]	IC50 [8]
O=C(NC[C@H](OCc1ccc(C#Cc2ccc(CN3CCOCC3)cc2)cc1)C(=O)NO)c1cc[nH]n1 [(S)-13l]	12.0 ± 0 mm	30.5 ± 0.7 mm	25.5 ± 0.7 mm	24.7 ± 0.6 mm	>30 mm	4.0 µg/mL (≈ 7.94 µM)	4 to 8 µg/mL (≈ 7.94 to 15.9 µM)	0.063 µg/mL (≈ 0.125 µM)	little to no inhibitory activity	11.6 ± 0.7%	80.9 ± 9 nM	11.5 ± 0.7 mm	
O=C(NC[C@H](OCc1ccc(C#Cc2ccc(CN3CCOCC3)cc2)cc1)C(=O)NO)c1cc(-c2ccccc2)[nH]n1 [(S)-13m]	<6 mm	14.7 ± 0.6 mm	13.0 ± 1.7 mm	11.3 ± 1.6 mm	24.5 ± 1.8 mm	8.0 µg/mL (≈ 13.8 µM)	4 to 8 µg/mL (≈ 6.9 to 13.8 µM)	0.063 µg/mL (≈ 0.109 µM)	little to no inhibitory activity	< 10%	85.2 ± 21.7 nM	<6 mm	
Cc1noc(C)c1C(=O)NC[C@H](OCc1ccc(C#Cc2ccc(CN3CCOCC3)cc2)cc1)C(=O)NO [(S)-13n]	<6 mm	24.0 ± 0 mm	20.0 ± 1.7 mm	20.8 ± 1.1 mm	>30 mm		16 µg/mL (≈ 30 µM)	0.13 µg/mL (≈ 0.244 µM)		92.7 ± 0.7%	127 ± 40 nM	7.0 ± 1.0 mm	1800 ± 150 nM
